In general, Kd refers to the free concentration of one partner at which half of the binding sites on the other are occupied at equilibrium, for simple one-to-one binding. Broadly, the IC50 is the concentration at which inhibition is half-maximal. Low readings indicate greater potency, high ones weaker potency. The inhibition is the relative decrease from the control value, in per cent.

Assay [1] deals with human RORγt ligand binding domain (RORγt LBD) (Homo sapiens (Human), UniProt P51449). The assay can be described thus: RORγt ThermoFluor assay (thermal shift binding affinity). The conditions noted are these: estimated from thermal shift. How it is done:
This approach is applicable to a wide variety of systems, and rigorous in theoretical interpretation through quantitation of equilibrium binding constants (KD).
The shift in the melting point described as a ΔTm is proportional to the concentration and affinity of the ligand.
RORγt ThermoFluor® Assay Construct
Protein and compound solutions are dispensed into black 384-well polypropylene PCR microplates (Abgene) and overlayed with silicone oil (1 μL, Fluka, type DC 200) to prevent evaporation.
Bar-coded assay plates are robotically loaded onto a thermostatically controlled PCR-type thermal block and then heated at a typical ramp-rate of 1° C./min for all experiments. Fluorescence was measured by continuous illumination with UV light (Hamamatsu LC6) supplied via fiber optic and filtered through a band-pass filter (380-400 nm; >6 OD cutoff). Fluorescence emission of the entire 384-well plate was detected by measuring light intensity using a CCD camera (Sensys, Roper Scientific) filtered to detect 500±25 nm, resulting in simultaneous and independent readings of all 384 wells. Images were collected at each temperature, and the sum of the pixel intensity in a given area of the assay plate was recorded versus temperature. Reference wells contained RORγt without compounds, and the assay conditions were as follows: • 0.065 mg/mL RORγt • 60 μM 1,8-ANS • 100 mM Hepes, pH 7.0 • 10 mM NaCl • 2.5 mM GSH • 0.002% Tween-20
Project compounds were arranged in a pre-dosed mother plate (Greiner Bio-one) wherein compounds are serially diluted in 100% DMSO by 1:2 from a high concentration of 10 mM over 12 columns within a series (column 12 is a reference well containing DMSO, no compound). The compounds were robotically dispensed directly into assay plates (1×=46 nL) using a Hummingbird capillary liquid handling instrument (Digilab). Following compound dispense, protein and dye in buffer was added to achieve the final assay volume of 3 μL, followed by 1 μL of silicone oil.

In the next assay the target is human RORγt LBD (Homo sapiens (Human), UniProt P51449). Description: RORγt reporter assay (GAL4-RORγt LBD luciferase in HEK293T cells). It counts as cell-based. The following applies: for IC50: 24 hours compound treatment; for inhibition at 6 µM: HEK-293T, read-out: RORγt reporter Assay, % inhibition @ 6 μM, HEK293T cells, 6 μM. The source says: A reporter assay was used to test functional activity of RORγt modulatory compounds on transcriptional activation driven by the RORγt LBD. Cells used in the assay were co-transfected with two constructs. The first construct, pBIND-RORγt LBD, contained the wild type human RORγt LBD fused to the DNA binding domain of the GAL4 protein. The second construct, pGL4.31 (Promega Cat no. C935A), contained multiple GAL4 responsive DNA elements upstream of firefly luciferase. […] The mutant construct was called pBIND-RORγt-AF2.
Sequence of human RORγt LBD (P51449 258-518): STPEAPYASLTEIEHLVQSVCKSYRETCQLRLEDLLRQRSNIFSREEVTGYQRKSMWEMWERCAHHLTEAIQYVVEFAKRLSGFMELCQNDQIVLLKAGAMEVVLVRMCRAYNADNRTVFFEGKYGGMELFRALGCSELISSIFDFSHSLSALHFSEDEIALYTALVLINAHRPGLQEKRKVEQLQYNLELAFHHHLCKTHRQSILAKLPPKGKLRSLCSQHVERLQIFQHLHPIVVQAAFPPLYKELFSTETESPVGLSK
The pBIND vector contains the GAL4 DNA Binding Domain (GAL4 DBD) and the renilla luciferase gene under control of the SV40 promoter. Renilla luciferase expression serves as a control for transfection efficiency and cell viability.
The reporter assay was performed by transiently transfecting HEK293T cells with 5 ng of pBIND-RORγt LBD or pBIND-RORγt LBD-AF2 and 5 μg pGL4.31 (Promega Cat no. C935A) using Fugene 6 ([…] Cat no. E2691) at a 1:6 ratio of DNA: Fugene 6 in a T-75 flask in which cells were at least 80% confluent. Twenty four hours after bulk transfection, cells were plated into 96-well plates at 50,000 cells/well in phenol-red free DMEM containing 5% Lipid Reduced FCS and Pen/Strep. Six hours after plating, cells were treated with compounds for 24 hours. Media was removed and cells were lysed with 50 μL 1× Glo Lysis Buffer (Promega). Dual Glo Luciferase Reagent (50 μL/well) was then added and firefly luciferase luminescence was read on an Envision after a ten minute incubation. Finally, Stop and Glo reagent (50 μL/well) was added and renilla luciferase luminescence was read on an Envision after a ten minute incubation. To calculate the effect of compounds on RORγt activity, the ratio of firefly to renilla luciferase was determined and plotted against compound concentration. Agonist compounds increase RORγt-driven luciferase expression, and antagonist or inverse agonist compounds decrease luciferase expression.
(In general: Reporter assays use an easily measured gene product as a stand-in for the process of interest.)

Where a name gives a salt, the structure may show the parent alone.

Sequence of human RORγt ligand binding domain (RORγt LBD) (P51449 other isoform, or with tags, fused parts or gaps): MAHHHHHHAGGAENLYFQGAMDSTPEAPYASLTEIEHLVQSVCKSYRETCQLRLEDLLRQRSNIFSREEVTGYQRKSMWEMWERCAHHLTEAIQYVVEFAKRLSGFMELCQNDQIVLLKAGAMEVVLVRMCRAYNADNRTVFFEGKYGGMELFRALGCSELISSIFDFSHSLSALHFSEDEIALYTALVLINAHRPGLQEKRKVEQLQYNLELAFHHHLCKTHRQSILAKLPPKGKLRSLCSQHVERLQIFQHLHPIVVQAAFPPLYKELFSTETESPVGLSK

Turning to `Cn1cncc1C(O)(c1ccc(Cl)cc1)c1ccc2nc(O)c(Cc3ccc(-n4cccn4)cc3)c(Cl)c2c1` (stereo not drawn) [Example 55A, 3-(4-(1H-Pyrazol-1-yl)benzyl)-4-chloro-6-((4-chlorophenyl)(hydroxy)(1-methyl-1H-imidazol-5-yl)methyl)quinolin-2-ol], the dissociation constant (Kd) in assay [1] is 7.6 µM. At human RORγt LBD (HEK293T cells), the midpoint of inhibition, the IC50, lay at 1.7 µM. In addition, the inhibition at 6 µM at human RORγt LBD stood at 94%.
On to `CCOc1nc2ccc(C(O)(c3ccc(Cl)cc3)c3cncn3C)cc2c(Cl)c1Cc1ccccc1` (stereo not drawn) [Example 14, (3-Benzyl-4-chloro-2-ethoxyquinolin-6-yl)(4-chlorophenyl)(1-methyl-1H-imidazol-5-yl)methanol.TFA], for which the Kd in assay [1] was 0.091 µM. On human RORγt LBD (HEK293T cells), this compound yielded an IC50 of 0.56 µM. The inhibition at 6 µM on human RORγt LBD is 74%.
For `Cn1cncc1C(O)(c1ccc(Cl)cc1)c1ccc2nc(O)c(Cc3ccc(-n4cccn4)cc3)c(Cl)c2c1` (single isomer, unassigned) [Example 55C, 3-(4-(1H-pyrazol-1-yl)benzyl)-4-chloro-6-((4-chlorophenyl)(hydroxy)(1-methyl-1H-imidazol-5-yl)methyl)quinolin-2-ol], in assay [1], the equilibrium dissociation constant (Kd) is 3.5 µM. For the same compound, the “RORγt reporter Assay, % inhibition @ 6 μM” value on human RORγt LBD (HEK293T cells, 6 μM) turned out to be 92%. The same compound gave an IC50 at human RORγt LBD (HEK293T cells) of 3.2 µM.
As for `COc1ccc(Cc2c(OC)nc3ccc(C(O)(c4ccc(Cl)cc4)c4cncn4C)cc3c2Cl)cc1` (stereo not drawn) [Example 13, (4-Chloro-2-methoxy-3-(4-methoxybenzyl)quinolin-6-yl)(4-chlorophenyl)(1-methyl-1H-imidazol-5-yl)methanol.TFA], the Kd in assay [1] is 0.031 µM. Besides, the IC50 on human RORγt LBD (HEK293T cells) is about 1 µM. On human RORγt LBD, the inhibition at 6 µM was 70%.
For `Cn1cncc1C(O)(c1ccc(C(F)(F)F)nc1)c1ccc2nc(C#N)c(Cc3ccc(-n4cccn4)cc3)cc2c1` (single isomer, unassigned) [Example 70B, 3-(4-(1H-Pyrazol-1-yl)benzyl)-6-(hydroxy(1-methyl-1H-imidazol-5-yl)(6-(trifluoromethyl)pyridin-3-yl)methyl)quinoline-2-carbonitrile] the same measures were 1.1 µM, 1 µM and 101%.
In the same order, the values of `COc1nc2c(C)cc(C(O)(c3ccc(Cl)cc3)c3cncn3C)cc2c(Cl)c1Cc1ccc(-n2cccn2)cc1` (single isomer, unassigned) [Example 28B, (3-(4-(1H-pyrazol-1-yl)benzyl)-4-chloro-2-methoxy-8-methylquinolin-6-yl)(4-chlorophenyl)(1-methyl-1H-imidazol-5-yl)methanol] are 1.6 µM, 1.1 µM and 90%.
With `CCc1nc2ccc(C(O)(c3cnnn3C)C3CN(C(C)=O)C3)cc2c(Cl)c1Cc1ccc(C(F)(F)F)cc1` (stereo not drawn) [Example 90A, 1-(3-((4-Chloro-2-ethyl-3-(4-(trifluoromethyl)benzyl)quinolin-6-yl)(hydroxy)(1-methyl-1H-1,2,3-triazol-5-yl)methyl)azetidin-1-yl)ethanone], the Kd in assay [1] was 0.00044 µM. Also, the IC50 against human RORγt LBD (HEK293T cells) worked out at 0.011 µM. The inhibition at 6 µM on human RORγt LBD is 98%.
In the same order, the values of `CCc1nc2ccc(C(O)(c3cnnn3C)C3CN(C(=O)OC(C)(C)C)C3)cc2c(Cl)c1Cc1ccc(C(F)(F)F)cc1` (stereo not drawn) [Example 89, tert-Butyl 3-((4-chloro-2-ethyl-3-(4-(trifluoromethyl)benzyl)quinolin-6-yl)(hydroxy)(1-methyl-1H-1,2,3-triazol-5-yl)methyl)azetidine-1-carboxylate] are 0.00077 µM, 0.021 µM and 102%.
Regarding `COc1nc2ccc(C(O)(c3ccc(C(F)(F)F)nc3)c3cncn3C)cc2c(Cl)c1Cc1ccc(C(F)(F)F)nc1` (stereo not drawn) [Example 94A, (4-Chloro-2-methoxy-3-((6-(trifluoromethyl)pyridin-3-yl)methyl)quinolin-6-yl)(1-methyl-1H-imidazol-5-yl)(6-(trifluoromethyl)pyridin-3-yl)methanol], the Kd in assay [1] is 0.012 µM. At human RORγt LBD (HEK293T cells), this compound returned an IC50 of 0.069 µM. Also, the inhibition at 6 µM on human RORγt LBD stood at 98%.
For `CNC(=O)c1nc2ccc(C(O)(c3ccc(F)cc3)c3cncn3C)cc2c(C(F)(F)F)c1Cc1ccccc1` (stereo not drawn) [Example 51, 3-Benzyl-6-((4-fluorophenyl)(hydroxy)(1-methyl-1H-imidazol-5-yl)methyl)-N-methyl-4-(trifluoromethyl)quinoline-2-carboxamide] the same measures were 1.1 µM, 1.9 µM and 98%.
For `CCOc1nc2ccc(C(O)(c3ccc(OC)nc3)c3cncs3)cc2c(Cl)c1Cc1ccccc1` (stereo not drawn) [Example 19, (3-Benzyl-4-chloro-2-ethoxyquinolin-6-yl)(6-methoxypyridin-3-yl)(thiazol-5-yl)methanol] the same measures were 0.0027 µM, 6.6 µM and 57%.
Regarding `OC(c1cccnc1)(c1ccc2nc(Cl)c(Cc3cccc(Cl)c3)cc2c1)c1cncs1` (stereo not drawn) [Example 10], the Kd in assay [1] is 0.099 µM. The same compound had a concentration for half-maximal inhibition (IC50) against human RORγt LBD (HEK293T cells) of 2.3 µM. Also, the inhibition at 6 µM at human RORγt LBD came out at 77%.
`COc1nc2c(C)cc(C(O)(c3cncn3C)c3cncn3C)cc2c(Cl)c1Cc1ccc(S(C)(=O)=O)cc1` [Example 57, (4-Chloro-2-methoxy-8-methyl-3-(4-(methylsulfonyl)benzyl)quinolin-6-yl)bis(1-methyl-1H-imidazol-5-yl)methanol.Succinate]: the Kd in assay [1] is 0.0084 µM. Also, 0.057 µM corresponded to half-maximal inhibition on human RORγt LBD (HEK293T cells) (IC50). Also, the inhibition at 6 µM on human RORγt LBD was determined as 100%.
Take `COc1nc2ccc(C(N)(c3ccc(C)nc3C)c3cnnn3C)cc2c(Cl)c1Cc1ccc(C(F)(F)F)cc1` (single isomer, unassigned) [Example 87B, (4-Chloro-2-methoxy-3-(4-(trifluoromethyl)benzyl)quinolin-6-yl)(2,6-dimethylpyridin-3-yl)(1-methyl-1H-1,2,3-triazol-5-yl)methanamine]: the Kd in assay [1] was 2.3 µM. The compound also came in with a concentration for half-maximal inhibition (IC50) at human RORγt LBD (HEK293T cells) of 0.85 µM. In addition, the inhibition at 6 µM at human RORγt LBD stood at 95%.
For `COc1ccc(Cc2c(Cl)nc3ccc(C(O)(c4ccc(Cl)cc4)c4cncn4C)cc3c2Cl)cc1` (stereo not drawn) [Example 12, (4-Chlorophenyl)(2,4-dichloro-3-(4-methoxybenzyl)quinolin-6-yl)(1-methyl-1H-imidazol-5-yl)methanol.TFA] the same measures were 0.016 µM, about 7 µM and 77%.
Regarding `COc1nc2ccc(C(O)(c3ccc(C)nc3C)c3cnnn3C)cc2c(C#N)c1Cc1ccc(C(F)(F)F)cc1` (stereo not drawn) [Example 78A, 6-((2,6-Dimethylpyridin-3-yl)(hydroxy)(1-methyl-1H-1,2,3-triazol-5-yl)methyl)-2-methoxy-3-(4-(trifluoromethyl)benzyl)quinoline-4-carbonitrile], the inhibition at 6 µM on human RORγt LBD is 97%.
As for `COc1ccc(Cc2cc3cc(C(O)(c4cncs4)c4cncn4C)ccc3nc2Cl)cc1` (stereo not drawn) [Example 52, (2-chloro-3-(4-methoxybenzyl)quinolin-6-yl)(1-methyl-1H-imidazol-5-yl)(thiazol-5-yl)methanol.TFA], at human RORγt LBD (HEK293T cells), the IC50 is over 6 µM. Moreover, the inhibition at 6 µM at human RORγt LBD turned out to be 34%.

These data come from patent US9290476B2, “Methylene linked quinolinyl modulators of RORγt” (Janssen Pharmaceutica NV, priority 2012, dated 2016).
